system: Mice; conditions: both, mouse, in vivo, 750 mg/kg, 1 week
Description: Mice (18-20 g) with equal numbers of male and female are divided into groups (10 mice/group), after normal feeding for 3 days, fasted for 12 hours, and then administered intragastrically with a single dose of 750 mg/kg compound respectively.
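Further: test animals were mice weighing 18-20 g, with both sexes in equal numbers in each group.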

Going from `OCC1OC(c2ccc(F)c(Cc3cc4ccccc4s3)c2)C(O)C(O)C1O` (centres unmarked) to `CCOc1ccc(Cc2cc(C3SC(CO)C(O)C(O)C3O)c(OC)cc2C)cc1` (centres unmarked), the “Behaviors after administration with the compound to be tested” value (from here on “Behaviors after administration”) rises from 7 dead to 10 dead.

same assay, conditions: single dose 750 mg/kg intragastric, 10 mice/group, observed one week

Compared with `CCOc1ccc(Cc2cc(C3OC(CO)C(O)C(O)C3O)ccc2Cl)cc1` (centres unmarked), `CCOc1ccc(Cc2cc(C3OC(CO)C(O)CC3O)ccc2Cl)cc1` (centres unmarked) is lower in “Behaviors after administration” value: 8 dead for the first, 3 dead for the second.

Compared with `CCOc1ccc(Cc2cc([C@]34OC[C@](CO)(O3)[C@@H](O)[C@H](O)[C@H]4O)ccc2Cl)cc1`, `CCOc1ccc(Cc2cc([C@]34OC[C@](C)(O3)[C@@H](O)[C@H](O)[C@H]4O)ccc2Cl)cc1` is lower in “Behaviors after administration” value: 9 dead for the first, 3 dead for the second.

First: CCCOc1ccc(Cc2cc(C3OC(C)C(O)C(O)C3O)ccc2Cl)cc1 (centres unmarked)
Second: CC1OC(c2ccc(Cl)c(Cc3ccc(O[C@H]4CCOC4)cc3)c2)C(O)C(O)C1O (some centres unmarked)
The “Behaviors after administration” value of the first is higher: 6 dead for the first, 1 dead for the second.

First: CCOc1ccc(Cc2cc(C3CC(O)C(O)C(CO)O3)ccc2Cl)cc1 (centres unmarked)
Second: CCOc1ccc(Cc2cc(C3OC(C)CC(O)C3O)ccc2Cl)cc1 (centres unmarked)
The “Behaviors after administration” value of the first is higher: 2 dead for the first, 1 dead for the second.

Going from `Cc1ccc(C2OC(CO)CC(O)C2O)cc1Cc1ccc(-c2ccc(F)cc2)s1` (centres unmarked) to `Cc1ccc(C2CC(O)C(O)C(CO)O2)cc1Cc1ccc(-c2ccc(F)cc2)s1` (centres unmarked), the “Behaviors after administration” value rises from 3 dead to 5 dead.

Compared with `CC1OC(c2ccc(F)c(Cc3cc4ccccc4s3)c2)C(O)C(O)C1O` (centres unmarked), `CC1OC(c2ccc(F)c(Cc3cc4ccccc4s3)c2)CC(O)C1O` (centres unmarked) is lower in “Behaviors after administration” value: 2 dead for the first, 1 dead for the second.

Going from `OCC1OC(c2ccc(Cl)c(Cc3ccc(O[C@H]4CCOC4)cc3)c2)C(O)CC1O` (some centres unmarked) to `OCC1OC(c2ccc(Cl)c(Cc3ccc(O[C@H]4CCOC4)cc3)c2)CC(O)C1O` (some centres unmarked), the “Behaviors after administration” value rises from 0 dead to 2 dead.

Compared with `Cc1ccc(C2OC(CO)C(O)C(O)C2O)cc1Cc1ccc(-c2ccc(F)cc2)s1` (centres unmarked), `Cc1ccc(C2OC(C)C(O)C(O)C2O)cc1Cc1ccc(-c2ccc(F)cc2)s1` (centres unmarked) is lower in “Behaviors after administration” value: 9 dead for the first, 4 dead for the second.

First: OCC1OC(c2ccc(Cl)c(Cc3ccc(O[C@H]4CCOC4)cc3)c2)C(O)C(O)C1O (some centres unmarked)
Second: CCOc1ccc(Cc2cc([C@@]34OC[C@@](CO)(C[C@H](O)[C@H]3O)O4)ccc2Cl)cc1
The “Behaviors after administration” value of the first is higher: 7 dead for the first, 4 dead for the second.

Going from `Cc1ccc(C2OC(CO)C(O)CC2O)cc1Cc1ccc(-c2ccc(F)cc2)s1` (centres unmarked) to `OCC1OC(c2ccc(F)c(Cc3cc4ccccc4s3)c2)C(O)CC1O` (centres unmarked), the “Behaviors after administration” value falls from 3 dead to 0 dead.

First: OCC1CC(O)C(O)C(c2ccc(F)c(Cc3cc4ccccc4s3)c2)O1 (centres unmarked)
Second: OCC1OC(c2ccc(F)c(Cc3cc4ccccc4s3)c2)CC(O)C1O (centres unmarked)
The “Behaviors after administration” value of the first is lower: 1 dead for the first, 3 dead for the second.

Going from `CCc1ccc(Cc2c(Cl)ccc3c2COC32OC(CO)C(O)CC2O)cc1` (centres unmarked) to `CCc1ccc(Cc2c(Cl)ccc3c2COC32CC(O)C(O)C(CO)O2)cc1` (centres unmarked), the “Behaviors after administration” value falls from 5 dead to 2 dead.

Compared with `CCOc1ccc(Cc2cc(C3SC(CO)CC(O)C3O)c(OC)cc2C)cc1` (centres unmarked), `CCOc1ccc(Cc2cc(C3CC(O)C(O)C(CO)S3)c(OC)cc2C)cc1` (centres unmarked) is higher in “Behaviors after administration” value: 1 dead for the first, 3 dead for the second.

In the case of `CCc1ccc(Cc2c(Cl)ccc3c2COC32CC(O)CC(CO)O2)cc1` (centres unmarked), the “Behaviors after administration” value is reported as 1 dead.

Reference: patent US10294259B2, “Phenyl c-glucoside derivative containing deoxyglucose structure, preparation method and use thereof” (Tianjin Institute of Pharmaceutical Research, priority 2012, dated 2019)
